Assay [1] deals with murine bone marrow-derived macrophages. Put plainly: area under cytotoxicity dose-response curve (AUC (% cytotoxicity x dose, relative)); higher = more cytotoxic. To be noted: duration: 6 days; dose range: 0.13-80 uM, 8 points. A digest of the protocol:
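Cytotoxicity is expressed as the area under the dose–response curve from GraphPad Prism version 10. To obtain it, primary murine bone marrow-derived macrophages were incubated for 6 days at 37 °C in 5% CO2 across final concentrations of 80–0.13 μM. Viability came from CellTiter-Glo luminescence, and percent cytotoxicity was normalised to vehicle and positive control wells.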

Assay [2] concerns Mycobacterium tuberculosis CDC1551 (intracellular, in murine BMDM). Put plainly: area under intracellular growth-inhibition dose-response curve (AUC (% inhibition x dose, relative)); higher = more potent. To be noted: duration: 6 days; dose range: 0.13-80 uM, 8 points. A digest of the protocol:
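In 384-well opaque plates, primary murine bone marrow-derived macrophages were infected with luciferase-expressing M. tuberculosis CDC1551 (multiplicity of infection 1, 1 h) 24 h after seeding, then treated for 6 days across final concentrations of 80–0.13 μM. Growth was measured by Bright-Glo luciferin assay, normalised to a reference drug control and the lowest-concentration wells. The reported value is the area under the growth-inhibition dose–response curve from GraphPad Prism.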

`O=C(c1ccc2ccccc2c1)N1CCCC1`: the “area under cytotoxicity dose-response curve” value in assay [1] came out at 32.9. For the same molecule, the “area under intracellular growth-inhibition dose-response curve” value in assay [2] came out at 222.

In the case of `CCn1c(-c2cccs2)nc2ccccc21`, the “area under cytotoxicity dose-response curve” value in assay [1] was 69.6. Besides, the “area under intracellular growth-inhibition dose-response curve” value in assay [2] worked out at 194.

Consider `CCC[C@@H](CN1CCC[C@H]1CN1C(N)=NC[C@@H]1Cc1ccccc1)N1C[C@@H](Cc2ccccc2)N(CCCC2CCCC2)C1=N`, for which, in assay [1], the “area under cytotoxicity dose-response curve” value stood at 52.7. In addition, in assay [2], the “area under intracellular growth-inhibition dose-response curve” value came out at 200.

Consider `CC1CCC(C(C)C)C(OC(=O)C[n+]2cc(-c3ccc(Cl)cc3)n3c2CCCCC3)C1.[Cl-]` (stereo not given), for which, in assay [1], the “area under cytotoxicity dose-response curve” value came to 107. The “area under intracellular growth-inhibition dose-response curve” value in assay [2] stood at 94.6.

Regarding `N=c1c2c(-c3ccccc3)c(-c3ccccc3)n(Cc3ccccc3)c2ncn1CCCn1ccnc1`, in assay [1], the “area under cytotoxicity dose-response curve” value is 49.3. Further, in assay [2], the “area under intracellular growth-inhibition dose-response curve” value is 48.2.

Regarding `c1ccc(-c2noc(CC3CCCCC3)n2)nc1`, in assay [1], the “area under cytotoxicity dose-response curve” value stood at 5.13. Besides, in assay [2], the “area under intracellular growth-inhibition dose-response curve” value stood at 200.

Turning to `CO[C@H]1C=CO[C@@]2(C)Oc3c(C)c(O)c4c(O)c(c(C=NN5CCN(C)CC5)c(O)c4c3C2=O)NC(=O)C(C)=CC=C[C@H](C)[C@H](O)[C@@H](C)[C@@H](O)[C@@H](C)[C@H](OC(C)=O)[C@@H]1C`, in assay [1], the “area under cytotoxicity dose-response curve” value came out at 92.8. Further, in assay [2], the “area under intracellular growth-inhibition dose-response curve” value was 275.

On to `Cc1ccc(NC(=O)NC2CCCCCCC2)cc1C`, for which the “area under cytotoxicity dose-response curve” value in assay [1] was determined as 89. In assay [2], the “area under intracellular growth-inhibition dose-response curve” value came to 230.

On to `CS(=O)(=O)Nc1ccccc1C(=O)OCC(=O)N1CCC(c2ccccc2)=N1`, for which the “area under cytotoxicity dose-response curve” value in assay [1] was less than 0. In addition, in assay [2], the “area under intracellular growth-inhibition dose-response curve” value turned out to be 115.

`CCc1ccc(OCC(=O)NC(=S)Nc2ccc(C(C)=O)cc2)c(Br)c1`: the “area under cytotoxicity dose-response curve” value in assay [1] was less than 0. For the same molecule, the “area under intracellular growth-inhibition dose-response curve” value in assay [2] turned out to be 238.

Consider `NC(=O)C[C@H](NC(=O)c1ccc(Cl)cc1)C(=O)OCc1ccccc1`, for which the “area under cytotoxicity dose-response curve” value in assay [1] was less than 0. The “area under intracellular growth-inhibition dose-response curve” value in assay [2] was 16.5.

As to `O=C(COC(=O)C1CC2CCCC(C1)C2=O)Nc1ccc(F)c(Cl)c1` (stereo not given), in assay [1], the “area under cytotoxicity dose-response curve” value was 44.5. The “area under intracellular growth-inhibition dose-response curve” value in assay [2] was 90.3.

Turning to `CCOc1ccc(-c2cc(C)[n+](CCc3ccc(OC)c(OC)c3)c(-c3ccc(OCC)cc3)c2)cc1.[O-][Cl+3]([O-])([O-])[O-]`, the “area under cytotoxicity dose-response curve” value in assay [1] stood at 102. Besides, the “area under intracellular growth-inhibition dose-response curve” value in assay [2] came out at 60.7.

On to `C=C[C@]1(C)C[C@@H](OC(=O)CSCCN(CC)CC)[C@]2(C)C(C)CC[C@]3(CCC(=O)[C@H]32)[C@@H](C)[C@@H]1O` (stereo not given in full), for which the “area under cytotoxicity dose-response curve” value in assay [1] was less than 0. In assay [2], the “area under intracellular growth-inhibition dose-response curve” value came out at 231.

In the case of `O=C(NCCC1=CCCCC1)NC12CC3CC(CC(C3)C1)C2`, the “area under cytotoxicity dose-response curve” value in assay [1] was found to be 60.3. Further, in assay [2], the “area under intracellular growth-inhibition dose-response curve” value is 196.

Regarding `C=C1C(=O)O[C@@H]2C[C@@H](C)[C@@H]3C=CC(=O)[C@@]3(C)[C@@H](OC(=O)CC(=O)O[C@H]3[C@@H]4C(=C)C(=O)O[C@@H]4C[C@@H](C)[C@@H]4C=CC(=O)[C@]43C)[C@H]12`, the “area under cytotoxicity dose-response curve” value in assay [1] is 35. Besides, the “area under intracellular growth-inhibition dose-response curve” value in assay [2] turned out to be 87.6.

Consider `Cc1nc(SCC(=O)NC2CCCCC2)nc(O)c1C`, for which the “area under cytotoxicity dose-response curve” value in assay [1] turned out to be 17.5. Moreover, the “area under intracellular growth-inhibition dose-response curve” value in assay [2] was found to be 30.2.

Take `Cc1nnc(SCC2=C(C(=O)O)N3C(=O)C(NC(=O)Cn4nc(C)c(Cl)c4C)C3SC2)s1` (stereo not given): the “area under cytotoxicity dose-response curve” value in assay [1] amounted to 82.6. In addition, the “area under intracellular growth-inhibition dose-response curve” value in assay [2] came out at 112.

`CCOC(=O)/C=C/C(=O)Nc1ccc(-c2nnc3n2CCCCC3)cc1`: the “area under cytotoxicity dose-response curve” value in assay [1] is 34.8. In addition, the “area under intracellular growth-inhibition dose-response curve” value in assay [2] was 131.

As to `CCCN(Cc1nnc(-c2ccccc2Cl)o1)C(=O)c1cc([N+](=O)[O-])cc([N+](=O)[O-])c1`, the “area under cytotoxicity dose-response curve” value in assay [1] was found to be 38.7. For the same molecule, in assay [2], the “area under intracellular growth-inhibition dose-response curve” value stood at 84.

With `CNc1ncnc2c1ncn2[C@@H]1O[C@H](CO)[C@@H](O)[C@H]1O`, in assay [1], the “area under cytotoxicity dose-response curve” value is 32.7. The “area under intracellular growth-inhibition dose-response curve” value in assay [2] turned out to be 39.4.

On to `COc1ccc(OC)c(/C=N/NC(=O)c2ccncc2)c1`, for which the “area under cytotoxicity dose-response curve” value in assay [1] amounted to 66.9. In addition, the “area under intracellular growth-inhibition dose-response curve” value in assay [2] is 254.

In the case of `O=[N+]([O-])C(=C\Nc1ccccc1O)/C=N/c1ccccc1O`, in assay [1], the “area under cytotoxicity dose-response curve” value is 3.94. Moreover, the “area under intracellular growth-inhibition dose-response curve” value in assay [2] was found to be 57.2.

Take `Cc1c(Cl)c(C(F)F)nn1CC(=O)NC1C(=O)N2C(C(=O)O)=C(CSc3nnnn3C)CSC12` (stereo not given): in assay [1], the “area under cytotoxicity dose-response curve” value came out at 121. In assay [2], the “area under intracellular growth-inhibition dose-response curve” value came to 151.

As to `Cc1ccc(S(=O)(=O)N2CCN(C(=O)c3cc(S(=O)(=O)N4CCOCC4)c(Cl)cc3Cl)CC2)cc1`, in assay [1], the “area under cytotoxicity dose-response curve” value worked out at 21.2. In addition, the “area under intracellular growth-inhibition dose-response curve” value in assay [2] turned out to be 75.1.

`Cc1cs/c(=N\C(=O)c2ccccc2)n1C`: in assay [1], the “area under cytotoxicity dose-response curve” value came out at 57.5. In addition, in assay [2], the “area under intracellular growth-inhibition dose-response curve” value is 102.

On to `C/C(CC(=O)Nc1cccc(C(F)(F)F)c1)=N\NC(=O)c1ccncc1`, for which the “area under cytotoxicity dose-response curve” value in assay [1] was less than 0. Besides, the “area under intracellular growth-inhibition dose-response curve” value in assay [2] stood at 212.

In the case of `O=C(CCCOc1ccc(Br)cc1)NNC(=O)c1ccncc1`, the “area under cytotoxicity dose-response curve” value in assay [1] stood at 24.1. Also, the “area under intracellular growth-inhibition dose-response curve” value in assay [2] came to 256.

As for `C/C(=N/NC(N)=S)c1ccc(Br)s1`, the “area under cytotoxicity dose-response curve” value in assay [1] is less than 0. The “area under intracellular growth-inhibition dose-response curve” value in assay [2] came to 268.

On to `Cc1nc(N)nc(N)c1/C=C/C(C)(C)c1ccc(Cl)cc1.Cl`, for which the “area under cytotoxicity dose-response curve” value in assay [1] came to 5.71. Besides, the “area under intracellular growth-inhibition dose-response curve” value in assay [2] is 230.

Turning to `CC(C)OC(=O)c1c2c(n3ccccc13)C(=O)c1ccccc1C2=O`, the “area under cytotoxicity dose-response curve” value in assay [1] was determined as 36.2. In assay [2], the “area under intracellular growth-inhibition dose-response curve” value is 209.

Take `CCCCN1CNC(=S)N(c2ccc(C(=O)OCC)cc2)C1`: the “area under cytotoxicity dose-response curve” value in assay [1] was less than 0. The “area under intracellular growth-inhibition dose-response curve” value in assay [2] worked out at 270.

With `C/C(CC(=O)Nc1ccc(C)c(Cl)c1)=N\NC(=O)c1ccncc1`, in assay [1], the “area under cytotoxicity dose-response curve” value is less than 0. The “area under intracellular growth-inhibition dose-response curve” value in assay [2] is 272.

With `C/C(CC(=O)Nc1ccccc1C#N)=N\NC(=O)c1ccncc1`, in assay [1], the “area under cytotoxicity dose-response curve” value came to 98.9. The “area under intracellular growth-inhibition dose-response curve” value in assay [2] was 229.

Consider `O=C(COC(=O)c1ccccc1O)NC1CCCc2ccccc21` (stereo not given), for which, in assay [1], the “area under cytotoxicity dose-response curve” value is less than 0. Further, the “area under intracellular growth-inhibition dose-response curve” value in assay [2] stood at 126.

Regarding `O=C(/C=C/c1cccs1)NC1CCCC1`, the “area under cytotoxicity dose-response curve” value in assay [1] is 39.1. Moreover, the “area under intracellular growth-inhibition dose-response curve” value in assay [2] was found to be 114.

Regarding `COc1cccc(NC(=O)NC2CCCCCCC2)c1`, the “area under cytotoxicity dose-response curve” value in assay [1] was 103. Further, the “area under intracellular growth-inhibition dose-response curve” value in assay [2] came to 162.

For the molecule `C/C(=N\NC(N)=S)c1ccc2c(c1)OCCO2`, the “area under cytotoxicity dose-response curve” value in assay [1] was found to be 25.3. Moreover, the “area under intracellular growth-inhibition dose-response curve” value in assay [2] was 196.

Turning to `O=C(c1ccc([N+](=O)[O-])o1)N(Cc1nnc(-c2ccccc2Cl)o1)C1CC1`, the “area under cytotoxicity dose-response curve” value in assay [1] is 41.5. The “area under intracellular growth-inhibition dose-response curve” value in assay [2] is 192.

For the molecule `CC(=O)c1cc(NC(=O)c2ccccc2)c(=O)oc1/C=C/N(C)C`, the “area under cytotoxicity dose-response curve” value in assay [1] was 30.2. In addition, the “area under intracellular growth-inhibition dose-response curve” value in assay [2] came to 160.

On to `CC(C)(C)c1ccc(OCCNC(=O)c2nc[nH]n2)cc1`, for which the “area under cytotoxicity dose-response curve” value in assay [1] is less than 0. The “area under intracellular growth-inhibition dose-response curve” value in assay [2] was determined as 233.

For the molecule `O=C(C=Cc1cccc(Cl)c1)c1ccccc1`, the “area under cytotoxicity dose-response curve” value in assay [1] was 6.7. In assay [2], the “area under intracellular growth-inhibition dose-response curve” value stood at 252.

Consider `CC(=O)Nc1ccc(Sc2ccc([N+](=O)[O-])o2)cc1`, for which the “area under cytotoxicity dose-response curve” value in assay [1] was found to be 21.3. In assay [2], the “area under intracellular growth-inhibition dose-response curve” value is 108.

Take `CCOc1ccc(-c2c(C)[n+](-c3ccc(OCC)cc3)c3n2CCCCC3)cc1.[O-][Cl+3]([O-])([O-])[O-]`: the “area under cytotoxicity dose-response curve” value in assay [1] was determined as 8.93. In assay [2], the “area under intracellular growth-inhibition dose-response curve” value is 57.1.

In the case of `CC(=O)Nc1ccccc1NC(=O)C/C(C)=N/NC(=O)c1ccncc1`, the “area under cytotoxicity dose-response curve” value in assay [1] was 38.1. Moreover, in assay [2], the “area under intracellular growth-inhibition dose-response curve” value was determined as 168.

For the molecule `Cc1nnc(SCC2=C(C(=O)O)N3C(=O)C(NC(=O)Cn4nc(C(F)F)c(Cl)c4C)C3SC2)s1` (stereo not given), the “area under cytotoxicity dose-response curve” value in assay [1] is less than 0. For the same molecule, the “area under intracellular growth-inhibition dose-response curve” value in assay [2] was found to be 193.

With `Cc1ccc(OCCCC(=O)Nc2ccc(S(=O)(=O)N3CCOCC3)cc2)cc1`, the “area under cytotoxicity dose-response curve” value in assay [1] is 3.26. In addition, in assay [2], the “area under intracellular growth-inhibition dose-response curve” value is 53.8.

On to `CC(NC(=O)c1cc([N+](=O)[O-])cc([N+](=O)[O-])c1)C1CC2CCC1C2` (stereo not given), for which the “area under cytotoxicity dose-response curve” value in assay [1] is 64.9. The “area under intracellular growth-inhibition dose-response curve” value in assay [2] is 257.

As for `NS(=O)(=O)c1ccc(NC(=S)Nc2ccc(OCc3ccccc3)cc2)cc1`, the “area under cytotoxicity dose-response curve” value in assay [1] was less than 0. For the same molecule, the “area under intracellular growth-inhibition dose-response curve” value in assay [2] was found to be 244.

`Cc1ccc(C)c(NC(=O)CN(C)C(=O)c2ccc(S(=O)(=O)N3CCCCCC3)cc2)c1`: the “area under cytotoxicity dose-response curve” value in assay [1] was less than 0. Moreover, the “area under intracellular growth-inhibition dose-response curve” value in assay [2] was 30.7.

For the origin of these results see the supplement of paper PMC11997997.
